This is an account of results in US9453242B2, “Method and culture medium for preparing mammalian ovum or embryo in which zona pellucida has been thinned or eliminated, and method for fertilization using mammalian ovum prepared by same method” (NATIONAL UNIVERISTY CORPORATION KUMAMOTO UNIVERSITY, priority 2010, dated 2016).

The test system of test [1] is frozen sperms of C57BL/6J mice. In words: In vitro fertilization after sperm pre-incubation with MBCD and/or glutathione. It is filed as cell-based, mouse. The method, then: A sperm suspension is pre-incubated in 90 μl of a TYH culture medium at 37° C. for 30 minutes, and under a stereomicroscope, sperms showing motility are collected, avoiding nonmotile sperms, and used for fertilization. The pre-incubated sperm suspension (10 μl) is added to 90 μl of an HTF culture medium (±glutathione) into which cumulus-oocyte complexes (COCs) have been previously introduced (insemination), and these are co-incubated in an incubator for 5 to 6 hours (37° C., 5% CO2), thereby performing fertilization. Thereafter, the ovum is washed with drops of new HTF, and the ovum is observed. Those judged to parthenogenetic (only one pronucleus is recognized in ooplasm) are excluded, and on the following day (24 hours after insemination), only 2-cell stage embryos are selected, and fertilization rate is determined according to the following formula. In vitro fertilization rate (%)=(number of 2-cell stage embryo)/(number of 2-cell stage embryo+number of unfertilized ovum)×100
The TYH culture medium used for pre-incubation of sperms was prepared according to the above-described composition excepting that polyvinyl alcohol (1.0 mg/ml, available from SIGMA) was used instead of bovine serum albumin, and methyl-β-cyclodextrin (0.75 mM, available from SIGMA) was added. Further, the concentration of glutathione in the TYH culture medium was 1 mM, preparation was carried out in the same manner as in Example 1, and glutathione was added to the TYH culture medium directly before use. The influence on fertilization rate was compared among those containing methyl-β-cyclodextrin, those containing glutathione and those containing both compounds.
Fertilization was conducted with 90 μl of an HTF culture medium (in the case of addition of glutathione, the concentration was 1 mM) containing cumulus-oocyte complexes (COCs), in the same manner as in Example 1 (IVF/glutathione in table). As the sperm, frozen sperms of C57BL/6J mice were used, and processed according to FIG. 1. Thawed sperms were pre-incubated in a TYH culture medium (±glutathione, ±methyl-β-cyclodextrin) at 37° C. for 30 minutes, and sperms showing motility were collected and used for fertilization. The experiment was conducted five times.

In test [2] the test system is zona pellucida of a mouse unfertilized ovum. Put plainly: Swelling of zona pellucida (area in zona pellucida) of unfertilized ovum. Format: cell-based. The settings on record: reducing agents other than glutathione; FIG. 10, FIG. 11 (DTT 0.5, ascorbic acid 5, epicatechin 1 mM). How it is done: Further, the influence of glutathione on swelling of zona pellucida was confirmed. […] Preparation of ovum” were treated with HTF culture media containing glutathione at various concentration at 37° C. for 6 hours, then, the area in zona pellucida was photographed under a microscope and measured by an image analysis software. The conditions of zona pellucida at glutathione concentrations of 0 mM, 1 mM, 2 mM and 10 mM were observed by an invert microscope.
The influence of other reducing agents (DTT, ascorbic acid (VC) and epicatechin (EC)) exerted on thinning and swelling of zona pellucida was confirmed in the same manner as in Example 2. The extent of swelling of the zona pellucida of an unfertilized ovum by the concentration of each reducing agent was photographed under a microscope, and determined according to the following formula. % Relative area in ZP=(area of zona pellucida in each experiment/area of zona pellucida at 0 mM)×100

As to methyl-β-cyclodextrin [MBCD], the “number of 2-cell stage embryo(%)” value in test [1] (sperm pre-incubation MBCD + (0.75 mM), glutathione −, IVF glutathione −) is 65%. The “number of 2-cell stage embryo” value in test [1] (sperm pre-incubation MBCD + (0.75 mM), glutathione −, IVF glutathione −, 323 oocytes) was found to be 210. The “effect of sperm pre-incubation on fertilization rate” value in test [1] (sperms pre-incubated with 1 mM glutathione or 0.75 mM MBCD, 37° C., 30 minutes) was “fertilization rate was improved”.

Turning to `O[C@@H](CS)[C@@H](O)CS` [DTT], the “thinning and swelling of zona pellucida” value in test [2] was “thinning and swelling of zona pellucida by treatment with DTT were confirmed”.

Consider `O=C1O[C@H]([C@@H](O)CO)C(O)=C1O` [ascorbic acid], for which the “thinning and swelling of zona pellucida” value in test [2] is listed as “thinning or swelling of zona pellucida did not occur”.
